{"source": "patent US20140235558A1", "about": "“PHARMACEUTICAL COMPOSITION HAVING ACTIVITY OF ANTICANCER” (Hanall Biopharma Co., Ltd., priority 2010, published 2014)", "key": {"[1]": {"tested_on": "AMPKα (5′-AMP-activated protein kinase alpha)", "assay": "AMPK activation: phosphorylation of AMPKα at Thr172 in MCF7 cells (AMPKα immunoassay kit)", "type": "cell-based, human", "details": "MCF7, 24 h", "description": "AMPK activation occurs when the generation of ATP, an energy source necessary for the survival of cancer cells, is inhibited. […] In this regard, AMPKα (5'-AMP-activated protein kinase alpha) activation was measured in the MCF7 human breast cancer cells using the AMPKα immunoassay kit (Invitrogen, catalog No. KHO0651). […] Then, the cells were lysed using the AMPKα immunoassay kit (Invitrogen, catalog No. KHO0651) according to the manufacturer's instruction."}, "[2]": {"tested_on": "human breast cancer cell line MCF7", "assay": "MTT cell growth inhibition, MCF7 cells", "type": "cell-based", "description": "(§1) Briefly, MCF7 and NCI-N87 cells were grown at a density of 5,000 cells/well in DMEM and RPMI1640 media (both purchased from Gibco Life Technologies, USA), respectively, both supplemented with 10% (v/v) bovine calf serum (BCS), on 96-well plates for 16 h (Temp.: 37° C., pH: 7.0˜7.4). Then, the MCF7 cells were incubated for 48 h with 2.5 mM 2-deoxy-D-glucose and 100 μM phenformin HCl, solely or in combination while NCI-N87 cells were incubated for 48 h with 2.5 mM 2-deoxy-D-glucose and 700 μM phenformin HCl, solely or in combination (Temp.: 37° C., pH: 7.0˜7.4). To quantitate viable cells after incubation with 2-deoxy-D-glucose and phenformin HCl, the cell cultures were further incubated for 3 h in the presence of MTT. The formazan crystals thus formed were dissolved with DMSO (dimethyl sulfoxide) before reading absorbance at 560 nm.\n(§2) After the 48 h incubation, viable cells were counted on the well plates treated with 2-deoxy-D-glucose and phenformin, and expressed as % cell growth inhibition relative to the count of the viable cells on the well plates treated with neither 2-deoxy-D-glucose nor phenformin.\n(§3) When the human breast cancer cell line MCF7 and the human stomach cancer cell line NCI-N87 were treated with various concentrations of phenformin and 2-deoxy-D-glucose, % inhibition of cancer cell growth was measured. The same procedure as in Experimental Example 2 was repeated, with the exception that 2-deoxy-D-glucose and phenformin HCl were used at different concentrations.\n(§4) The same procedure as in Experimental Example 3 was repeated in the breast cancer cell line MCF7 and the colorectal cancer cell line HCT116 (both purchased from the Korean Cell Line Bank), with the exception that the materials and concentrations indicated in Tables 5 and 6 were employed."}, "[3]": {"tested_on": "human stomach cancer cell line NCI-N87", "assay": "MTT cell growth inhibition, NCI-N87 cells", "type": "cell-based", "description": "as §1, §2, §3"}, "[4]": {"tested_on": "colorectal cancer cell line HCT116", "assay": "MTT cell growth inhibition, HCT116 cells", "type": "cell-based, human", "description": "as §1, §2, §4"}}, "note": "Where a name gives a salt, the structure may show the parent alone. Read-outs that look alike come from different tables or passages of the source."}
{"smiles": "OCC1O[C@H](O)C[C@@H](O)[C@@H]1O", "note": "(mixture of isomers) [2-Deoxy-D-glucose, 2-deoxy-D-glucose]", "values": [{"measurement": "Normalized to Control (P-AMPK)", "setting": "[1]; 2-deoxy-D-glucose 2.5 mM", "result": 1.46}, {"measurement": "P-AMPK (Unit/ml)", "setting": "[1]; 2-deoxy-D-glucose 2.5 mM", "result": "7.62 ± 1.2", "unit": "Unit/ml"}, {"measurement": "inhibition at 2500 µM", "setting": "[2]; Homo sapiens, MCF7, 48 h, read-out: Cell Growth Inhibition (%)", "result": 44.2, "unit": "%"}, {"measurement": "Tumor Growth Inhibition (%)", "setting": "[2]; MCF7, 2-DG 100 μM alone", "result": 0, "unit": "%"}, {"measurement": "Tumor Growth Inhibition (%)", "setting": "[2]; MCF7, 2-DG 500 μM alone", "result": 5, "unit": "%"}, {"measurement": "Tumor Growth Inhibition (%)", "setting": "[2]; MCF7, 2-DG 2 mM alone", "result": 31, "unit": "%"}, {"measurement": "Tumor Growth Inhibition (%)", "setting": "[2]; MCF7, 2-DG 2.5 mM alone (Table 5)", "result": 58, "unit": "%"}, {"measurement": "Tumor Growth Inhibition (%)", "setting": "[2]; MCF7, 2-DG 5.0 mM alone", "result": 76, "unit": "%"}, {"measurement": "Tumor Growth Inhibition (%)", "setting": "[2]; MCF7, 2-DG 20.0 mM alone", "result": 91, "unit": "%"}, {"measurement": "inhibitory effect on breast cancer cells relative to stomach cancer cells", "setting": "[2]; MCF7 vs NCI-N87, 2.5 mM", "result": "about 3 times"}, {"measurement": "inhibition at 2500 µM", "setting": "[3]; Homo sapiens, NCI-N87, 48 h, 2-deoxy-D-glucose 2.5 mM", "result": 15.1, "unit": "%"}, {"measurement": "Tumor Growth Inhibition (%)", "setting": "[3]; NCI-N87, 2-DG 100 μM alone", "result": 3, "unit": "%"}, {"measurement": "Tumor Growth Inhibition (%)", "setting": "[3]; NCI-N87, 2-DG 500 μM alone", "result": 6, "unit": "%"}, {"measurement": "Tumor Growth Inhibition (%)", "setting": "[3]; NCI-N87, 2-DG 2 mM alone", "result": 32, "unit": "%"}, {"measurement": "Tumor Growth Inhibition (%)", "setting": "[4]; 2-DG 2.5 mM alone", "result": 62, "unit": "%"}, {"measurement": "Tumor Growth Inhibition (%)", "setting": "[4]; 2-DG 5.0 mM alone", "result": 79, "unit": "%"}, {"measurement": "Tumor Growth Inhibition (%)", "setting": "[4]; 2-DG 20.0 mM alone", "result": 93, "unit": "%"}]}
{"smiles": "N=C(N)NC(=N)NCCc1ccccc1", "note": "[Phenformin HCl, phenformin hydrochloride]", "values": [{"measurement": "Normalized to Control (P-AMPK)", "setting": "[1]; phenformin HCl 50 nM [sic]", "result": 5.98}, {"measurement": "P-AMPK (Unit/ml)", "setting": "[1]; phenformin HCl 50 nM [sic]", "result": "12.14 ± 2.0", "unit": "Unit/ml"}, {"measurement": "inhibition at 100 µM", "setting": "[2]; Homo sapiens, MCF7, 48 h, phenformin HCl 100 μM, read-out: Cell Growth Inhibition (%)", "result": 14.3, "unit": "%"}, {"measurement": "inhibition at 10 µM", "setting": "[2]; Homo sapiens, MCF7, phenformin 10 μM alone, read-out: Tumor Growth Inhibition (%)", "result": 9, "unit": "%"}, {"measurement": "inhibition at 50 µM", "setting": "[2]; Homo sapiens, MCF7, phenformin 50 μM alone, read-out: Tumor Growth Inhibition (%)", "result": 12, "unit": "%"}, {"measurement": "inhibition at 100 µM", "setting": "[2]; Homo sapiens, MCF7, phenformin 100 μM alone, read-out: Tumor Growth Inhibition (%)", "result": 14, "unit": "%"}, {"measurement": "inhibition at 200 µM", "setting": "[2]; Homo sapiens, MCF7, phenformin 200 μM alone, read-out: Tumor Growth Inhibition (%)", "result": 18, "unit": "%"}, {"measurement": "inhibition at 400 µM", "setting": "[2]; Homo sapiens, MCF7, phenformin 400 μM alone, read-out: Tumor Growth Inhibition (%)", "result": 31, "unit": "%"}, {"measurement": "inhibition at 1000 µM", "setting": "[2]; Homo sapiens, MCF7, phenformin 1 mM alone, read-out: Tumor Growth Inhibition (%)", "result": 58, "unit": "%"}, {"measurement": "inhibition at 700 µM", "setting": "[3]; Homo sapiens, NCI-N87, 48 h, phenformin HCl 700 μM", "result": 52.5, "unit": "%"}, {"measurement": "inhibition at 10 µM", "setting": "[3]; Homo sapiens, NCI-N87, phenformin 10 μM alone, read-out: Tumor Growth Inhibition (%)", "result": 22, "unit": "%"}, {"measurement": "inhibition at 50 µM", "setting": "[3]; Homo sapiens, NCI-N87, phenformin 50 μM alone, read-out: Tumor Growth Inhibition (%)", "result": 24, "unit": "%"}, {"measurement": "inhibition at 100 µM", "setting": "[3]; Homo sapiens, NCI-N87, phenformin 100 μM alone, read-out: Tumor Growth Inhibition (%)", "result": 24, "unit": "%"}, {"measurement": "inhibition at 200 µM", "setting": "[3]; Homo sapiens, NCI-N87, phenformin 200 μM alone, read-out: Tumor Growth Inhibition (%)", "result": 24, "unit": "%"}, {"measurement": "inhibition at 400 µM", "setting": "[3]; Homo sapiens, NCI-N87, phenformin 400 μM alone, read-out: Tumor Growth Inhibition (%)", "result": 26, "unit": "%"}, {"measurement": "inhibition at 1000 µM", "setting": "[3]; Homo sapiens, NCI-N87, phenformin 1 mM alone, read-out: Tumor Growth Inhibition (%)", "result": 39, "unit": "%"}, {"measurement": "inhibitory effect on stomach cancer cells relative to breast cancer cells", "setting": "[3]; NCI-N87 (700 μM) vs MCF7 (100 μM), 7-fold increased concentration", "result": "approximately 4 fold"}]}
{"smiles": "CN(C)C(=N)N=C(N)N", "note": "[Metformin HCl, metformin hydrochloride]", "values": [{"measurement": "inhibition at 625 µM", "setting": "[2]; Homo sapiens, MCF7, metformin HCl 0.625 mM alone, read-out: Tumor Growth Inhibition (%)", "result": 9, "unit": "%"}, {"measurement": "inhibition at 1250 µM", "setting": "[2]; Homo sapiens, MCF7, metformin HCl 1.25 mM alone, read-out: Tumor Growth Inhibition (%)", "result": 22, "unit": "%"}, {"measurement": "inhibition at 2500 µM", "setting": "[2]; Homo sapiens, MCF7, metformin HCl 2.5 mM alone, read-out: Tumor Growth Inhibition (%)", "result": 24, "unit": "%"}, {"measurement": "inhibition at 5000 µM", "setting": "[2]; Homo sapiens, MCF7, metformin HCl 5.0 mM alone, read-out: Tumor Growth Inhibition (%)", "result": 30, "unit": "%"}, {"measurement": "inhibition at 10000 µM", "setting": "[2]; Homo sapiens, MCF7, metformin HCl 10.0 mM alone, read-out: Tumor Growth Inhibition (%)", "result": 38, "unit": "%"}, {"measurement": "inhibition at 20000 µM", "setting": "[2]; Homo sapiens, MCF7, metformin HCl 20.0 mM alone, read-out: Tumor Growth Inhibition (%)", "result": 61, "unit": "%"}, {"measurement": "inhibition at 625 µM", "setting": "[4]; Homo sapiens, HCT-116, metformin HCl 0.625 mM alone, read-out: Tumor Growth Inhibition (%)", "result": 7, "unit": "%"}, {"measurement": "inhibition at 1250 µM", "setting": "[4]; Homo sapiens, HCT-116, metformin HCl 1.25 mM alone, read-out: Tumor Growth Inhibition (%)", "result": 11, "unit": "%"}, {"measurement": "inhibition at 2500 µM", "setting": "[4]; Homo sapiens, HCT-116, metformin HCl 2.5 mM alone, read-out: Tumor Growth Inhibition (%)", "result": 40, "unit": "%"}, {"measurement": "inhibition at 5000 µM", "setting": "[4]; Homo sapiens, HCT-116, metformin HCl 5.0 mM alone, read-out: Tumor Growth Inhibition (%)", "result": 64, "unit": "%"}, {"measurement": "inhibition at 10000 µM", "setting": "[4]; Homo sapiens, HCT-116, metformin HCl 10.0 mM alone, read-out: Tumor Growth Inhibition (%)", "result": 63, "unit": "%"}, {"measurement": "inhibition at 20000 µM", "setting": "[4]; Homo sapiens, HCT-116, metformin HCl 20.0 mM alone, read-out: Tumor Growth Inhibition (%)", "result": 66, "unit": "%"}]}
